For data set [1], the system named is FTO. As to the kind of experiment: Relative FTO expression level by realtime PCR. It counts as cell-based. The following applies: AGII 4 μM, 20 hours, human CB CD34+ cells. On the procedure: Human CD34^+ CB cell collection and culture. Umbilical CB units were supplied by Cleveland Cord Blood Bank and CordUse, Orlando, FL, USA. All studies were approved by the institutional review board of the IUSM. Mononuclear cells were isolated by density gradient centrifugation and CD34^+ cells were isolated by immunomagnetic selection kit (Miltenyi Biotec, 130-046-702). The purity of human CD34^+ CB cells was over 90% and the cells were cultured in StemSpanII serum-free medium ([…] Technologies, 09650) supplemented with 100 ng/mL stem cell factor (SCF), 100 ng/mL FMS-like tyrosine kinase 3 ligand (Flt3L) and 100 ng/mL thrombopoietin (TPO). For molecular compound treatment, all reagents were ordered from Cayman Chemical (Ann Arbor, MI, USA). Briefly, molecular compounds were added in the initiation of human CB CD34^+ cells culture, the time and concentration of each molecular compound for cell treatment was shown in figure legends.
RNA extraction and real-time PCR. After cells were harvested by FACS, RNA was extracted by a RNeasy Mini Kit following manufacturer's protocol (Qiagen, 74106). Total RNA was reverse-transcribed by use of Superscript III kit (ThermoFisher, 18080093). Quantitative real-time PCR reactions were performed by SYBR Green PCR Master Mix (Thermo Fisher, Florence, KY, USA) and an Agilent Mx3000P QPCR System. […]

For data set [2], the system named is phenotypic HSC (CD34+ CD38- CD45RA- CD90+ CD49f+). As to the kind of experiment: Chemotaxis (transwell migration) assay toward SDF-1, phenotypic HSCs. It counts as cell-based, human. On the procedure: (§1) Chemotaxis assay. Chemotaxis assays were performed in Costar 24-well trans-well plates with 6.5 mm diameter inserts with 5.0 μm pores (Corning, NY, USA). Briefly, 650 μL of IMDM medium (37° C.) that contained 0.5% bovine serum albumin (Sigma-Aldrich) and SDF-1 (0, 50 ng/mL) was added to the bottom well. Cells were suspended at 1×10^5 cells/100 μL in IMDM medium and loaded to the upper chamber of the trans-well. Trans-well plates were placed in a 37° C. incubator with 95% humidity and 5% CO2 for 4 hours. Percent migration was measured using flow cytometry with number of cells in the bottom chamber divided by number of cells placed in the upper chamber. To calculate the percent migration of CB HSCs, phenotypic HSCs was determined by surface staining and flow cytometry analysis. Human CB HSC chemotaxis was calculated as number of HSCs in the bottom chamber divided by number of HSCs loaded in the upper chamber. For AMD3100 administration, cells were treated with 5 μg/mL AMD3100 (239820, Sigma-Aldrich) for 30 min right before the chemotaxis assay.

Data set [3] concerns human CB CD34+ cells. As to the kind of experiment: Chemotaxis (transwell migration) assay toward SDF-1, CB CD34+ cells. It counts as cell-based. On the procedure:
as §1

For data set [4], the system named is YTHDF2 and CXCR4. As to the kind of experiment: YTHDF2 binding level of CXCR4 (YTHDF2 RIP combined with RT-qPCR). It counts as cell-based, human. On the procedure: RNA immunoprecipitation. RNA immunoprecipitation was performed as previously described^14. Briefly, 0.5-1×10^6 collected human CD34^+ cells were lysed in buffer A (20 mM Tris-Cl, pH 8.0; 100 mM NaCl, 1 mM EDTA, 0.5% NP-40, protease and RNase inhibitors) for 20 min at 4° C. After centrifugation for 5 min, 1/10th volume of cell lysate was saved as input. Anti-YTHDF2 (Abcam, ab220163) was prebound to the protein A/G beads and then reacted with the rest of the cell lysate overnight at 4° C. After elution from the beads, the RNA samples were precipitated with ethanol and dissolved in RNase-free water. RNAs were further purified with RNA Clean and Concentrator-5 (Zymo, R1013). The relative CXCR4 enrichment was determined by calculating the Ct values of the RIP sample relative to the input sample. Expression of non-m6a housekeeping gene ACTB was used as an internal control. Data are shown as relative binding level normalized to levels in sh-Control group, set to 1.
On the technique in general: Real-time PCR tracks product formation cycle by cycle.

For data set [5], the system named is m6A labelled CXCR4. The data set can be described thus: m6A enrichment on CXCR4 (m6A IP combined with RT-qPCR). It counts as cell-based, human. On the procedure:
M6A-RNA Immunoprecipitation. MeRIP analysis was used as previously described^15. Briefly, the total RNAs were extracted, and then RNA concentration was adjusted to 1 μg/μl. RNA was fragmented into ˜100 nt size and these RNA were immunoprecipitated with the anti-m6A antibody according to the standard protocol of the Magna MeRIP m6A Kit (Merck Millipore, 17-10499). M6A enrichment was determined by qPCR analysis.

The test system of data set [6] is human CB CD34+ cells. The data set can be described thus: Long-term engraftment / limiting dilution analysis (LDA) in NSG mice. It counts as in vivo. On the procedure: Limiting dilution analysis (LDA). Frequency of human SCID repopulating cells (SRCs) was determined by LDA as reported before. Increasing doses of GFP overexpressing CD34^+ cells (2500, 5000 or 10000 cells) were intravenously injected into sublethally irradiated NSG recipient mice (350 cGy; 137Cs source, single dose). Four months after transplantation, the percentage of GFP^+ human CD45^+ cell chimerism was analyzed by immunostaining and flow cytometry. For long-term engraftment assays that assess the self-renewal capacity of HSC, 3×10^6 BM cells from primary recipients of the 10000-cell group were intravenously transplanted into secondary sub-lethally irradiated NSG recipient mice.

Data set [7] concerns CXCR4. As to the kind of experiment: Surface CXCR4 protein level (MFI) by flow cytometry. The following applies: for CXCR4 protein level: siRNA knockdown. It counts as cell-based, human. From the text:
(§2) Human CD34^+ CB cell collection and culture. Umbilical CB units were supplied by Cleveland Cord Blood Bank and CordUse, Orlando, FL, USA. All studies were approved by the institutional review board of the IUSM. Mononuclear cells were isolated by density gradient centrifugation and CD34^+ cells were isolated by immunomagnetic selection kit (Miltenyi Biotec, 130-046-702). […] For molecular compound treatment, all reagents were ordered from Cayman Chemical (Ann Arbor, MI, USA). Briefly, molecular compounds were added in the initiation of human CB CD34^+ cells culture, the time and concentration of each molecular compound for cell treatment was shown in figure legends.
Flow cytometry. Fresh or cultured CB cells were sorted for different phenotypes by using the following antibodies. Antibodies were used to detect CD34 (BV786, BD Biosciences, 744741), CD34 (FITC, BD Biosciences, 340668), CD45RA (Taxe-red, BD Biosciences, 562298), CD90 (BV421, BD Biosciences, 562556), CD49f (cy5.5, BD Biosciences, 562495), CD38 (PE, BD Biosciences, 560981). CD3 (BV421, BD Biosciences, 562427), CD33 (PE, BD Biosciences, 555450), CD19 (PE, BD Biosciences, 555413), CXCR4 (APC, BD Biosciences, 555976) and CD45 (APC, BD Biosciences, 555485). Gating strategy of phenotypic HSCs were shown in supplementary FIG. 2B.
(In general: Flow cytometry measures light scatter and fluorescence of single cells or particles in a stream.)

The subject of data set [8] is human CB CD34+ cells. As to the kind of experiment: Homing assay of treated human CB CD34+ cells in NSG mice. It counts as in vivo. Conditions: 500,000 cells. On the procedure: Homing assay. Homing of human CB CD34^+ cells was evaluated in NSG mice. Molecular compounds treated or siRNA transfected human CB CD34+ cells (500,000 for each mouse) were intravenously injected into sub-lethally irradiated (350 cGy) NSG mice. After 24 h, these recipient mice were sacrificed, BM cells from each mouse were collected. Cells were stained with anti-human CD45 antibody, then resuspended in 1% formaldehyde buffer. Flow cytometry analysis was performed to determine the percentage of human CD45^+ cells. BM cells from non-transplanted NSG mice served as negative controls.

The subject of data set [9] is CB CD34+ cells. As to the kind of experiment: Colony-forming unit (CFU) assay. It counts as cell-based, human. The following applies: AGII-treated CB CD34+ cells.
The subject of data set [10] is YTHDF2. As to the kind of experiment: Relative YTHDF2 expression level in human CB CD34+ cells. It counts as cell-based. The following applies: siRNA 2 μM electroporated into human CB CD34+ cells.
Excerpt: as §2
(§3) RNA extraction and real-time PCR. After cells were harvested by FACS, RNA was extracted by a RNeasy Mini Kit following manufacturer's protocol (Qiagen, 74106). Total RNA was reverse-transcribed by use of Superscript III kit (ThermoFisher, 18080093). Quantitative real-time PCR reactions were performed by SYBR Green PCR Master Mix (Thermo Fisher, Florence, KY, USA) and an Agilent Mx3000P QPCR System. Expression of housekeeping gene GAPDH was used as an internal control. Data are shown as relative mRNA level normalized to levels in vehicle control, set to 1.

The test system of data set [11] is CXCR4. As to the kind of experiment: CXCR4 RNA level in human CB CD34+ cells. It counts as cell-based. Conditions: YTHDF2 knockdown by siRNA. On the procedure:
as §3, with “1. SEQ ID NO: 1-16 are the primer sequences utilized.” for “1.”

[12] abbreviates: AGII-treated human CB CD34+ cells.

Here are results for two substances from patent US20260146232A1, “METHODS FOR PROMOTING HOMING AND ENGRAFTMENT OF HEMATOPOIETIC STEM CELLS” (The Trustees of Indiana University, priority 2022, published 2026).

Regarding “Angiotensin II [AGII, peptide hormone of the RAAS system]”, the FTO expression result in data set [1] is listed as “significantly upregulated”. In data set [2] (AGII-treated cells), the “chemotaxis to SDF-1 of HSCs” value is “greatly enhanced”. The “human CB CD34+ cell migration toward graded doses of SDF-1” value in data set [3] (AGII-treated cells) is “greatly enhanced”. Besides, the “binding between YTHDF2 and CXCR4” value in data set [4] (setting [12]) was “decreased”. In addition, the “relative m6A labeled CXCR4 level” value in data set [5] (setting [12]) is on record as “decreased”. Besides, in data set [6] (AGII-treated cells, 10,000 cells, PB and BM), the “engraftment in NSG recipients vs control” value is given as “significantly increased”. Moreover, in [6] (AGII-treated cells, BM 4 months), the “human myeloid and lymphoid cell chimerism” value is recorded as “increased”. The “SRC frequency (Poisson distribution analysis)” value in data set [6] (AGII-treated cells, control 1/3984) is 1/1280. Moreover, the “number of SRCs” value in [6] (AGII-treated cells, control 251) is given as 781 SRCs. Also, the “engraftment in secondary transplantation vs control” value in data set [6] (AGII-treated cells, secondary NSG mice at 4 months) is “enhanced engraftment”. In [7] (AGII-treated vs vehicle), the “protein level of CXCR4” value is listed as “upregulates”. Besides, the “homing to mouse BM” value in [8] (20 hours AGII treatment, 24 h after transplantation) is “dramatically promoted”. Also, the “colony output vs vehicle” value in data set [9] is “no significant difference”.
As to “5′-TTGGCTATTGGGAACGTCCTT-3′ (partner strand not given here) [siRNA]”, the “migration to SDF-1 in the HSC population” value in [2] (siRNA transfected cells, SDF-1 50 ng/mL) was “Enhanced migration”. Also, in data set [3] (siRNA transfected cells), the “migration of CB CD34+ cells to SDF-1” value is “significant migration”. Besides, the “binding level of YTHDF2 and CXCR4” value in data set [4] (YTHDF2 knockdown by siRNA) is given as “significantly decreased”. Also, the “expression level of m6A labelled CXCR4” value in data set [5] (YTHDF2 knockdown by siRNA) is reported as “greatly increased”. In [10], the “YTHDF2 expression at the RNA and protein level” value is on record as “efficiently downregulated”. The “engraftment in secondary NSG mice” value in [6] (BM cells from siRNA transfected group) is “enhanced engraftment”. Moreover, the “increase in number of functionally detectable SRCs compared with control” value in data set [6] (siRNA transfected group) is approximately 4 fold. The “SRC frequency (Poisson distribution analysis)” value in data set [6] (siRNA transfected group, control 1/2439) is 1/667. Besides, the “number of SRCs” value in data set [6] (siRNA transfected group, control 410) was 1478 SRCs in 1×10^6 cells. Moreover, the “human myeloid and B-cell chimerism” value in data set [6] (siRNA transfected, BM 4 months) was “significantly increased”. Moreover, in data set [6] (siRNA transfected, PB at 2 and 4 months, BM at 4 months), the “engraftment vs control group” value is on record as “enhanced engraftment”. Also, the CXCR4 protein level entry in data set [7] (HSCs (CD34+ CD38- CD45RA- CD49f+ CD90+)) and in data set [7] (human CB CD34+ cells) was “notably upregulated” throughout. Also, in data set [8] (siRNA transfected, 24 hours), the “human CB CD34+ cell homing in NSG mice” value is recorded as “enhanced”. The “RNA level of CXCR4” value in [11] is reported as “significantly upregulated”.
